Test results reported in patent US9765060B2 (Gilead Sciences, Inc., priority 2014, dated 2017).
pIC50: −log10 of the molar value.

Target: PI3K isoform δ (Homo sapiens (Human), UniProt O00329)
Assay: TR-FRET assay of enzymatic activity of class I PI3K isoforms
Conditions: not given

PI3K isoform δ, sequence (O00329 whole entry, canonical isoform): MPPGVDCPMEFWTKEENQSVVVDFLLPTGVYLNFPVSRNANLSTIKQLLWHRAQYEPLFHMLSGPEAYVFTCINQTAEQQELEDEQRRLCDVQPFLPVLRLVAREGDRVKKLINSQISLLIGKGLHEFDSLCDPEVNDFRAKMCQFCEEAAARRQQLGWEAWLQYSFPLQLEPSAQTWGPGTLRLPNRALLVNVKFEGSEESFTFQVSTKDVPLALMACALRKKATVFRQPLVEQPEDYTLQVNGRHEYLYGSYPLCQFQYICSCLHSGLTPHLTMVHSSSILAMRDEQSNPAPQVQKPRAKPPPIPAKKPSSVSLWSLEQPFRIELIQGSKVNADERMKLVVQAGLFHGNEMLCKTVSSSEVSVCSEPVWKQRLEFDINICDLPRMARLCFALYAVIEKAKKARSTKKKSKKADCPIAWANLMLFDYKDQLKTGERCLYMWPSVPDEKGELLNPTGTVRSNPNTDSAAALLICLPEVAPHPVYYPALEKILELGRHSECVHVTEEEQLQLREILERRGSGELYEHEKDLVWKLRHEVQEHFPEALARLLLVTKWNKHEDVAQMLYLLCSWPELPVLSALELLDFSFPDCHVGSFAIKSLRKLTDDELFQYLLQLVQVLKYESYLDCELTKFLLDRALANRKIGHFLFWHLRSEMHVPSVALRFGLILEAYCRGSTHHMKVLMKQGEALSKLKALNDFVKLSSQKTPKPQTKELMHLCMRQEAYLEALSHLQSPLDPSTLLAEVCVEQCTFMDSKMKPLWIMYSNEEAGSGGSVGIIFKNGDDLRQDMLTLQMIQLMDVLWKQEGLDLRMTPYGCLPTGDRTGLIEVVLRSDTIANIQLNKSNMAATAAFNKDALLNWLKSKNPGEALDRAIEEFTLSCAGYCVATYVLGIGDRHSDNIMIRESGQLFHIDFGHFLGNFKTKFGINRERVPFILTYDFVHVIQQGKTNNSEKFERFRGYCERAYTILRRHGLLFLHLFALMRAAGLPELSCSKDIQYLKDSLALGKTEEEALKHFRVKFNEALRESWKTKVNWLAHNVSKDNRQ
PI3K isoform δ, sequence (P27986 whole entry partner, canonical isoform): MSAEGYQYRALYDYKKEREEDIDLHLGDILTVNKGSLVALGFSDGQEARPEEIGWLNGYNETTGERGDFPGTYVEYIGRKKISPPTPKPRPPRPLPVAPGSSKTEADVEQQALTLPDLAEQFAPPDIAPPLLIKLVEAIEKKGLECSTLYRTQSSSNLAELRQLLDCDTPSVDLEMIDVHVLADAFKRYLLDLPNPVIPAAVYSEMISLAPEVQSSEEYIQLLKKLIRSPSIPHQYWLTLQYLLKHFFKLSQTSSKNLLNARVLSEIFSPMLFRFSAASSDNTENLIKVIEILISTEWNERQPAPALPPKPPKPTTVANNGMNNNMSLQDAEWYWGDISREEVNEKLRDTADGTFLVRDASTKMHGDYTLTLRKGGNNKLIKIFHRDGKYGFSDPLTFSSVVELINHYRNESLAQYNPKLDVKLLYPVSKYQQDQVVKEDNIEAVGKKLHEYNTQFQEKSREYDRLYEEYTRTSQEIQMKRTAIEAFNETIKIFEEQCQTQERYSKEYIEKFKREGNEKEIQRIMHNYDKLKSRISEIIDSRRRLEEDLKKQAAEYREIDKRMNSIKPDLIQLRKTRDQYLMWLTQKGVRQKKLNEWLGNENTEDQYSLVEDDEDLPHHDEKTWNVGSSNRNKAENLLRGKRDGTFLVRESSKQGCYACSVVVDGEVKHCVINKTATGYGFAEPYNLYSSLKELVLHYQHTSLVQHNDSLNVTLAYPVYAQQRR

Compound	pIC50
N#Cc1c(N)nc(N)nc1NC(c1nc2cccc(F)c2c(=O)n1-c1cccc(F)c1)C1CC1 (single isomer, unassigned) [Compound 15a, 2,4-diamino-6-((cyclopropyl(5-fluoro-3-(3-fluorophenyl)-4-oxo-3,4-dihydroquinazolin-2-yl)methyl)amino)pyrimidine-5-carbonitrile]	8.22

Same assay, conditions: IC50 (nM) for PI3K isoform δ (Table 2), TR-FRET; 2× Km ATP, 2 μM PIP2; incubated for 30 minutes at 25° C.

Compound	IC50
CS(=O)(=O)c1cccc2nc(C(Nc3nc(N)nc(N)c3C#N)C3CC3)n(-c3ccccc3F)c(=O)c12 (single isomer, unassigned) [Compound 17a-1]	6 nM
CS(=O)(=O)c1cccc2nc(C(Nc3nc(N)nc(N)c3C#N)C3CC3)n(-c3ccccc3F)c(=O)c12 (single isomer, unassigned) [Compound 17a-2]	8 nM

Same assay, conditions: read-out: IC50 (nM) for PI3K isoform δ (Table 2); TR-FRET; 2× Km ATP, 2 μM PIP2; incubated for 30 minutes at 25° C.

Compound	IC50
N#Cc1c(N)nc(N)nc1N[C@H](c1nc2ccc(F)c(C#N)c2c(=O)n1-c1cccc(F)c1)C1CC1 [Compound 7a, (S)-2-(cyclopropyl((2,6-diamino-5-cyanopyrimidin-4-yl)amino)methyl)-6-fluoro-3-(3-fluorophenyl)-4-oxo-3,4-dihydroquinazoline-5-carbonitrile]	6 nM
N#Cc1c(N)nc(N)nc1N[C@H](c1nc2cccc(F)c2c(=O)n1-c1cc(F)cc(F)c1)C1CC1 [Compound 14a, (S)-2,4-diamino-6-((cyclopropyl(3-(3,5-difluorophenyl)-5-fluoro-4-oxo-3,4-dihydroquinazolin-2-yl)methyl)amino)pyrimidine-5-carbonitrile]	19 nM

Same assay, conditions: read-out: IC50 (nM) for PI3K isoform δ (Table 3); TR-FRET; 2× Km ATP, 2 μM PIP2; incubated for 30 minutes at 25° C.

Compound	IC50
N#Cc1c(N)nc(N)nc1N1C[C@H](F)C[C@H]1c1nc2cccc(Cl)c2c(=O)n1-c1cc(F)cc(F)c1 [Compound 95, 2,4-diamino-6-((2S,4R)-2-(5-chloro-3-(3,5-difluorophenyl)-4-oxo-3,4-dihydroquinazolin-2-yl)-4-fluoropyrrolidin-1-yl)pyrimidine-5-carbonitrile]	160 nM
C[C@H](Nc1nc(N)nc(N)c1C#N)c1nc2cccc(CCCC3CCCCC3)c2c(=O)n1-c1ccccc1 [Compound 65, (S)-2,4-diamino-6-((1-(5-(3-cyclohexylpropyl)-4-oxo-3-phenyl-3,4-dihydroquinazolin-2-yl)ethyl)amino)pyrimidine-5-carbonitrile]	15 nM
N#Cc1c(N)nc(N)nc1N1CCC[C@H]1c1nc2cccc(CCCC(=O)O)c2c(=O)n1-c1ccccc1 [Compound 70, (S)-4-(2-(1-(2,6-diamino-5-cyanopyrimidin-4-yl)pyrrolidin-2-yl)-4-oxo-3-phenyl-3,4-dihydroquinazolin-5-yl)butanoic acid]	3 nM
Cc1cccc2c(=O)n(-c3cc(F)cc(F)c3)c([C@@H]3CCCN3c3nc(N)nc(N)c3C#N)nc12 [Compound 86, (S)-2,4-diamino-6-(2-(3-(3,5-difluorophenyl)-8-methyl-4-oxo-3,4-dihydroquinazolin-2-yl)pyrrolidin-1-yl)pyrimidine-5-carbonitrile]	12 nM
Cc1nc(N)c(C#N)c(N[C@@H](C)c2nc3cccc(Cl)c3c(=O)n2-c2ccccc2)n1 [Compound 98, (S)-4-amino-6-((1-(5-chloro-4-oxo-3-phenyl-3,4-dihydroquinazolin-2-yl)ethyl)amino)-2-methylpyrimidine-5-carbonitrile]	10 nM
C[C@H](Nc1nc(N)nc(N)c1C#N)c1nc2cccc(OCCN3CCCCCC3)c2c(=O)n1-c1ccccc1 [Compound 23, (S)-2,4-diamino-6-((1-(5-(2-(azepan-1-yl)ethoxy)-4-oxo-3-phenyl-3,4-dihydroquinazolin-2-yl)ethyl)amino)pyrimidine-5-carbonitrile]	10 nM
N#Cc1c(N)nc(N)nc1N1C[C@H](NC(=O)CN)C[C@H]1c1nc2cccc(Cl)c2c(=O)n1-c1ccccc1 [Compound 115, 2-amino-N-((3R,5S)-5-(5-chloro-4-oxo-3-phenyl-3,4-dihydroquinazolin-2-yl)-1-(2,6-diamino-5-cyanopyrimidin-4-yl)pyrrolidin-3-yl)acetamide]	64 nM
N#Cc1c(N)nc(N)nc1N[C@H](c1nc2c(F)ccc(CCCN3CCCC3)c2c(=O)n1-c1ccccc1)C1CC1 [Compound 58, (S)-2,4-diamino-6-((cyclopropyl(8-fluoro-4-oxo-3-phenyl-5-(3-(pyrrolidin-1-yl)propyl)-3,4-dihydroquinazolin-2-yl)methyl)amino)pyrimidine-5-carbonitrile]	3 nM
Cc1nc(N)c(Br)c(N[C@@H](C)c2nc3cccc(Cl)c3c(=O)n2-c2ccccc2)n1 [Compound 20, (S)-2-(1-((6-amino-5-bromo-2-methylpyrimidin-4-yl)amino)ethyl)-5-chloro-3-phenylquinazolin-4(3H)-one]	21 nM
N-((3R,5S)-5-(5-chloro-3-(3-(difluorophenyl)-5-fluorophenyl)-4-oxo-3,4-dihydroquinazolin-2-yl)-1-(2,6-diamino-5-cyanopyrimidin-4-yl)pyrrolidin-3-yl)-2,2-difluoroacetamide [Compound 110]	2 nM
CS(=O)(=O)c1cccc2nc([C@@H]3CCCN3c3nc(N)nc(N)c3C#N)n(-c3ccccc3F)c(=O)c12 (atropisomer, axis not shown) [Compound 73, (S)-2,4-diamino-6-(2-(3-(2-fluorophenyl)-5-(methylsulfonyl)-4-oxo-3,4-dihydroquinazolin-2-yl)pyrrolidin-1-yl)pyrimidine-5-carbonitrile]	4 nM
N#Cc1c(N)nc(N)nc1N1C[C@H](NC(=O)CN)C[C@H]1c1nc2cccc(Cl)c2c(=O)n1-c1cc(F)cc(F)c1 [Compound 116, 2-amino-N-((3R,5S)-5-(5-chloro-3-(3,5-difluorophenyl)-4-oxo-3,4-dihydroquinazolin-2-yl)-1-(2,6-diamino-5-cyanopyrimidin-4-yl)pyrrolidin-3-yl)acetamide]	7 nM

More lines, now with the values ahead:

IC50	Compound
0.7 nM	C[C@H](Nc1nc(N)nc(Cl)c1C#N)c1nc2c(F)ccc(Cl)c2c(=O)n1-c1ccccc1 [Compound 66, (S)-2-amino-4-chloro-6-((1-(5-chloro-8-fluoro-4-oxo-3-phenyl-3,4-dihydroquinazolin-2-yl)ethyl)amino)pyrimidine-5-carbonitrile]
2 nM	C[C@@H]1C[C@@H](c2nc3cccc(Cl)c3c(=O)n2-c2ccccc2)N(c2nc(N)nc(N)c2C#N)C1 [Compound 94, 2,4-diamino-6-((2S,4R)-2-(5-chloro-4-oxo-3-phenyl-3,4-dihydroquinazolin-2-yl)-4-methylpyrrolidin-1-yl)pyrimidine-5-carbonitrile]
2 nM	C[C@H](Nc1nc(N)nc(N)c1C#N)c1nc2cccc(CCCN3CCC(F)(F)C3)c2c(=O)n1-c1ccccc1 [Compound 47, (S)-2,4-diamino-6-((1-(5-(3-(3,3-difluoropyrrolidin-1-yl)propyl)-4-oxo-3-phenyl-3,4-dihydroquinazolin-2-yl)ethyl)amino)pyrimidine-5-carbonitrile]
0.8 nM	C[C@H](Nc1nc(N)nc(N)c1C#N)c1nc2cccc(CCCN3CC4(COC4)C3)c2c(=O)n1-c1ccccc1 [Compound 62, (S)-4-((1-(5-(3-(2-oxa-6-azaspiro[3.3]heptan-6-yl)propyl)-4-oxo-3-phenyl-3,4-dihydroquinazolin-2-yl)ethyl)amino)-2,6-diaminopyrimidine-5-carbonitrile]
2 nM	C[C@H](Nc1nc(N)nc(N)c1C#N)c1nc2cccc(CCCC(=O)O)c2c(=O)n1-c1cc(F)cc(F)c1 [Compound 71, (S)-4-(2-(1-((2,6-diamino-5-cyanopyrimidin-4-yl)amino)ethyl)-3-(3,5-difluorophenyl)-4-oxo-3,4-dihydroquinazolin-5-yl)butanoic acid]
0.7 nM	C[C@H](Nc1nc(N)nc(N)c1C#N)c1nc2cccc(CCCN3CCOCC3(C)C)c2c(=O)n1-c1ccccc1 [Compound 53, (S)-2,4-diamino-6-((1-(5-(3-(3,3-dimethylmorpholino)propyl)-4-oxo-3-phenyl-3,4-dihydroquinazolin-2-yl)ethyl)amino)pyrimidine-5-carbonitrile]
0.7 nM	N#Cc1c(N)nc(N)nc1N1C[C@H](NC(=O)C(F)F)C[C@H]1c1nc2cccc(Cl)c2c(=O)n1-c1cc(F)cc(F)c1 [Compound 109, N-((3R,5S)-5-(5-chloro-3-(3,5-difluorophenyl)-4-oxo-3,4-dihydroquinazolin-2-yl)-1-(2,6-diamino-5-cyanopyrimidin-4-yl)pyrrolidin-3-yl)-2,2-difluoroacetamide]
1.3 nM	C[C@H](Nc1nc(N)nc(N)c1C#N)c1nc2c(F)ccc(CCCN3CCCC3)c2c(=O)n1-c1ccccc1 [Compound 50, (S)-2,4-diamino-6-((1-(8-fluoro-4-oxo-3-phenyl-5-(3-(pyrrolidin-1-yl)propyl)-3,4-dihydroquinazolin-2-yl)ethyl)amino)pyrimidine-5-carbonitrile]
2 nM	CC1CCN(C(=O)COc2cccc3nc([C@H](C)Nc4nc(N)nc(N)c4C#N)n(-c4ccccc4)c(=O)c23)CC1 [Compound 36, (S)-2,4-diamino-6-((1-(5-(2-(4-methylpiperidin-1-yl)-2-oxoethoxy)-4-oxo-3-phenyl-3,4-dihydroquinazolin-2-yl)ethyl)amino)pyrimidine-5-carbonitrile]
1.2 nM	CS(=O)(=O)c1cccc2nc([C@@H]3CCCN3c3nc(N)nc(N)c3C#N)n(-c3c(F)cccc3F)c(=O)c12 [Compound 75, (S)-2,4-diamino-6-(2-(3-(2,6-difluorophenyl)-5-(methylsulfonyl)-4-oxo-3,4-dihydroquinazolin-2-yl)pyrrolidin-1-yl)pyrimidine-5-carbonitrile]
2 nM	N#Cc1c(N)nc(N)nc1N[C@H](c1nc2c(F)ccc(CCCN3CCCCC3)c2c(=O)n1-c1ccccc1)C1CC1 [Compound 59, (S)-2,4-diamino-6-((cyclopropyl(8-fluoro-4-oxo-3-phenyl-5-(3-(piperidin-1-yl)propyl)-3,4-dihydroquinazolin-2-yl)methyl)amino)pyrimidine-5-carbonitrile]
